From US4327114A, “Substituted 1,8-dihydroxy-9-(10H)anthracenones” (Boehringer Ingelheim GmbH, priority 1980, dated 1982)
“Also recorded” adds a separate entry of the source.

Assays:
[1] = Solubility remark; assay type: physicochemical
[2] = system: skin; conditions: literature or prior use; listed as dithranol; cited from earlier work
[3] = Acute toxicity in the mouse; assay type: in vivo; conditions: in vivo, within 14 days
Method: (§1) The acute toxicity was determined in the mouse and in the rat. Determined was the LD50, i.e. the dose after administration of which 50% of the animals died within 14 days, or it was determined how many of the 10 treated animals died within the period of observation.

[4] = system: mouse; experiment: Acute toxicity in the mouse; assay type: in vivo; conditions: 2000 mg/kg
Method: as §1

[5] = Penetration and metabolization in the skin in vitro; assay type: in vitro ADME, pig; conditions: thin-layer chromatography; for penetration into the layers of the skin: same carriers
[6] = Acute toxicity in the rat; assay type: in vivo; conditions: in vivo, ip, within 14 days
Method: as §1

[7] = system: rat; experiment: Acute toxicity in the rat; assay type: in vivo
Method: as §1

[8] = Stability under light irradiation; assay type: physicochemical; conditions: for decomposition under light: 30 minutes, 400 W high-pressure mercury vapor lamp, in toluene or xylene
Method: Compound C and dithranol (A) in solution (toluene or xylene) were exposed for 30 minutes to a 400 W high-pressure mercury vapor lamp (Type HPM 12, Phillips), where the spectrum of light emission was changed by adding heavy metal salts.

[9] = prior use; cited from earlier work
[10] = system: skin (forearms of volunteer human test subjects); experiment: Orienting skin compatibility in humans (ointments on forearm); assay type: in vivo; conditions: for discoloration of the skin / skin irritation: 0.44% ointment, 16 hours, doubled to 0.88% after 3 days if no reaction
Method: Ointments, each containing individually 0.44% of compounds […] and K were applied to the forearms of volunteer human test subjects, covered with bandage gauze and allowed to remain on the skin for 16 hours. After 16 hours the ointments were washed off with soap solution, and the skin irritation and discoloration, if any, were evaluated visually and photographed. Then, the test ointments were again administered and allowed to remain on the skin until the next day. Again, the reactions were evaluated and a new treatment was started.

[11] = system: guinea pigs; experiment: Sensitizing activity on guinea pigs; assay type: in vivo, guinea pig (Perbright White strain)
Method: The sensitizing activity was tested 2 weeks after the skin compatibility test with 1:10 to 1:50 of the originally used concentrations behind the ears.

[12] = system: skin; experiment: Skin compatibility under occlusion, method of Mustakallio; assay type: in vivo; conditions: for concentrations producing discoloration and skin irritations: white vaseline
Method: In a further test, according to the method of Mustakallio, compound A was applied at concentrations of 1, 2, 4, 8, 16, 32 mmols in white vaseline and allowed to remain on the skin for 4 hours under occlusion. Compounds C and K, however, were applied at concentrations of 4, 8, 16, 32, 64, 128 mmols, also in white vaseline, and allowed to remain on the skin for 16 hours under occlusion. […] This means that the novel compounds are more compatible by a factor of at least 64.

[13] = system: psoriasis; conditions: literature or prior use; cited from earlier work
[14] = system: skin of guinea pigs; experiment: Skin compatibility test on guinea pigs; assay type: in vivo, guinea pig (Perbright White strain); conditions: for Sum of the reactions divided by the number of animals: score 0 no irritation to 3 very strong erythema
Method: Guinea pigs of the Perbright White strain, with a body weight of about 350 gm, were fed with standard guinea pig feed (Altromin 3022) and water ad lib.
During the test, the animals were kept in single cages. The test substances, which were dissolved in a well compatible solvent, were applied to the skin of the animals (diameter of the test area 3.5 cm) daily for 3 weeks, from Monday to Friday. The animals were shaved each Monday, Wednesday and Friday in the early morning, the treatment with the test substances was performed in the early afternoon. Immediately before administration of the substance, the skin reaction was tested. The evaluation was carried out visually, and erythema, edema, and mycosis of the skin were considered.
The following evaluation was made:
2: strong erythema with beginning edema
3: very strong erythema with edema or beginning necrosis.
The numerical sum of the reactions was used for the total evaluation of a group of animals.

[15] = system: guinea pig; experiment: Photo-sensitization in vivo on the guinea pig; conditions: 0.01% alcoholic solution, 3 weeks, 125 W mercury high-pressure lamp 10 minutes
Method: Since some halogenated aromatic substances have a photo-sensitizing activity, the photo-sensitization of compound C was also tested in vivo on the guinea pig.
Guinea pigs were treated for 3 weeks on 5 week-days with a 0.01% alcoholic solution of compound C. After 30 minutes each animal was exposed for 10 minutes to a 125 W mercury high-pressure lamp (ultra violet sun lamp). The irradiation was carried out in such a way that no UV-B erythema appeared.

[16] = biological target: glucose-6-phosphate-dihydrogenase; experiment: Inhibition of glucose-6-phosphate-dihydrogenase after 120 minutes incubation; assay type: biochemical; conditions: 37° C., pH 7.6, REED and MUENCH
Method: The inhibiting effect upon enzymes was determined by measurement of the inhibition of glucose-6-phosphate-dihydrogenase.
The following equilibrium was observed: [drawing 5] (NADP-nicotinamide-adenine-dinucleotide-phosphate). The rate of formation of NADPH is a measure of the enzyme activity; it can be measured by means of the increase in extinction at […] per unit of time.
0.025 ml of glucose-6-phosphate-dihydrogenase were diluted to 10 ml with distilled water (Solution I). 100 mg of nicotinamide-adenine-dinucleotide-phosphate were dissolved in 13 ml of distilled water (Solution II). 47.2 mg of glucose-6-phosphate were dissolved in another 10 ml of distilled water (Solution III). Besides this, a buffer solution (Solution IV) was prepared as follows:
0.28 gm of triethanolamine hydrochloride and 1.461 gm of ethylene-diamine tetraacetic acid disodium salt were dissolved in 1 liter of distilled water, and the solution was adjusted to pH 7.6 with sodium hydroxide. The substance to be tested was dissolved in dimethyl formamide or ethanol (Solution V). Tested end-concentrations: 25, 12.5, 6.25, 3.125, 1.56 and 0.78 μg/ml.
A mixture of 0.1 ml of Solution I, 0.1 ml of Solution II, 2.67 ml of Solution IV and 0.03 ml of Solution V was kept at 37° C. for 120 minutes. After addition of 0.1 ml of Solution III and thorough mixing, the change in extinction was measured photometrically at 366 nm over 3 minutes. The inhibition values were calculated from the average values of 3 measurements (as change of extinction per minute), compared to controls to which the pure solvent was added as inhibitor solution. The ED50 was calculated according to the method of REED and MUENCH from the inhibiting values of the different concentrations. The following table contains the values thus determined: […]

[17] = Natural color of the substance (UV-absorption, FIG. 1); assay type: physicochemical; conditions: shortwave portion of visible light, beginning at 380 nm
Excerpt: Topically administrable substances which are colored are undesirable for cosmetic reasons and also because the lingerie may become soiled. […] This is also expressed by the optic impression of the preparations. […] This is a further advantage compared with dithranol.

Structure (SMILES): CC(C)(C)c1cc(Br)c(O)c2c1Cc1c(Br)cc(Br)c(O)c1C2=O
- solubility [1]: inadequate solubility

Structure (SMILES): O=C1c2c(O)cccc2Cc2cccc(O)c21 [Compound A, 1,8-Dihydroxy-9-(10H)anthracenone]
- skin irritation and/or discoloration [2]: strong, irreversible discoloration of skin and lingerie; also recorded: strong skin-irritating activity
- LD50 at 336 h ([3]; ip): 2.42 mg/kg
- LD50 at 336 h ([3]; sc.): 2.22 mg/kg
- Number of dead animals ([4]; p.o.): 2/10
- penetration into the layers of the skin [5]: penetrate to an approximately equal extent
- metabolization in the skin [5]: metabolized in a similar manner
- LD50 at 336 h [6]: 5.19 mg/kg
- Number of dead animals ([7]; p.o., 2000 mg/kg): 1/10
- Number of dead animals ([7]; sc., 1000 mg/kg): 2/10
- decomposition under light [8]: nearly completely decomposed
- systemic side-effects [9]: lack of systemic side-effects
- discoloration of the skin [10]: brownish-violet discoloration after only the second application
- skin irritation [10]: strong skin irritation with erythema
- later changes of the treated skin area ([10]; ointment test): peeled after about one week
- sensitized animals ([11]; 0.03%, tested 2 weeks after skin compatibility test): 3 out of 12
- concentrations producing discoloration and skin irritations ([12]; 4 hours of occlusion): ≥ 2 mmols
- concentrations producing discoloration and skin irritations ([12]; 16 hours of occlusion): ≥ 1 mmols
- antipsoriatic activity [13]: reliable activity
- Sum of the reactions divided by the number of animals ([14]; 0.015%, end of 1st week): 0.66
- Sum of the reactions divided by the number of animals ([14]; 0.015%, end of 2nd week): 0.33
- Sum of the reactions divided by the number of animals ([14]; 0.015%, end of 3rd week): 0.33
- Sum of the reactions divided by the number of animals ([14]; 0.03%, end of 1st week): 1.3
- Sum of the reactions divided by the number of animals ([14]; 0.03%, end of 2nd week): 2.16
- Sum of the reactions divided by the number of animals ([14]; 0.03%, end of 3rd week): 2.25

Structure (SMILES): O=C1c2c(O)ccc(Cl)c2Cc2c(Cl)ccc(O)c21 [Compound C, 4,5-Dichloro-1,8-dihydroxy-9-(10H)anthracenone]
- Number of dead animals ([4]; i.p.): 1/10
- Number of dead animals ([4]; p.o.): 0/10
- Number of dead animals ([4]; sc.): 6/10
- penetration into the layers of the skin [5]: penetrate to an approximately equal extent
- metabolization in the skin [5]: metabolized in a similar manner
- Number of dead animals ([7]; i.p., 2000 mg/kg): 0/10
- Number of dead animals ([7]; p.o., 2000 mg/kg): 0/10
- Number of dead animals ([7]; sc., 2000 mg/kg): 0/10
- decomposition under light [8]: no decomposition could be determined
- chlorination of toluene (radical formation) ([8]; gas-chromatographic, sensitivity 0.0001%): no chlorination of toluene could be found
- photo-sensitizing activity [15]: No photo-sensitizing activity could be determined
- discoloration of the skin [10]: no skin irritation or discoloration of the skin
- skin irritation [10]: no skin irritation
- ED50, inhibition of incubation after 120 minutes [16]: 4.63 µg/mL
- UV-absorption / yellow color [17]: significantly less UV-absorption
- sensitization ([11]; 1:10 to 1:50 of the original concentrations, behind the ears): no sensitization
- skin irritations or discolorations ([12]; 4 to 128 mmols in white vaseline, after 4 and after 16 hours of occlusion): no skin irritations or discolorations could be observed
- Sum of the reactions divided by the number of animals ([14]; 0.03%, end of 1st week): 0
- Sum of the reactions divided by the number of animals ([14]; 0.03%, end of 2nd week): 0
- Sum of the reactions divided by the number of animals ([14]; 0.03%, end of 3rd week): 0.04
- Sum of the reactions divided by the number of animals ([14]; 0.045%, end of 1st week): 0.166
- Sum of the reactions divided by the number of animals ([14]; 0.045%, end of 2nd week): 0.66
- Sum of the reactions divided by the number of animals ([14]; 0.045%, end of 3rd week): 0.41
- skin compatibility compared with compound A ([14]; Table 3): considerably more skin-compatible than compound A
